Data as given in PubChem BioAssay AID1985 (Southern Research Specialized Biocontainment Screening …, 2009).
“And” between values parts separate entries of the source, which are not always exact repeats. Equal entries are not always repeated.

Test system: S. Typhi PhoP-promoter GFP reporter, fluorescence, 4 h
Test: PhoP regulon inhibitor project modified counter assay, GFP fluorescence readout, dose response (AID 1985)

Compound `COc1ccc(-c2cnc(NCc3cc4c(cc3[N+](=O)[O-])OCO4)n2C)cc1` has an IC50 of 107 µM.
`Cc1cc(Cl)c(OCCCNCc2ccccc2)c(Br)c1` showed an IC50 of 81.7 µM.
For `CN(C)CCCN1c2ccccc2Sc2ccc(Cl)cc21`, the IC50 was 88.1 µM and 81.4 µM.
`CSc1cccc(NC(=O)/C=C/c2ccccc2)c1` gave an IC50 of 84.9 µM.
With `Cc1cc(NC(=O)c2ccc3[nH]c(C)c(C)c3c2)ccn1` the IC50 was 144 µM.
Work on `CCN1CCN(C2=C(NS(=O)(=O)c3ccc(Br)cc3)C(=O)c3ccccc3C2=O)CC1` yielded an IC50 of 47.4 µM.
`O=C(Cn1cncn1)N/N=C/c1ccccc1O` showed an IC50 of 103 µM.
`O=C(NC1CCCCC1)c1ccc([N+](=O)[O-])o1` was tested, and the IC50 was 39.5 µM.
Work on `O=[N+]([O-])c1ccc(/C=[N+](\[O-])CCO)o1` yielded an IC50 of 33.6 µM.
Compound `CC1CCc2c(N3CCC(O)CC3)c(F)cc3c(=O)c(C(=O)O)cn1c23` (stereo unspecified) has an IC50 of 4.44 µM.
`O=C(Cn1nc(C(F)F)cc1C(F)F)NNC(=S)Nc1ccc([N+](=O)[O-])cc1` gave an IC50 of 64.2 µM.
In the case of `Fc1ccc(Nc2c3c(nc4ccccc24)CCC3)cc1`, the IC50 is reported as 85 µM.
`Cn1ncnc2c(=O)n(C)c(=O)nc1-2` showed an IC50 of 0.741 µM.
With `OC(CN1CCCCC1)Cn1c2ccccc2c2cc(Br)ccc21` (stereo unspecified) the IC50 was 81.9 µM.
With `CN(C)c1ccc(/C=C/c2ccc3ccccc3[n+]2C)cc1` the IC50 was 19.5 µM.
Work on `O=[N+]([O-])c1cccc(NNS(=O)(=O)c2ccccc2F)c1` yielded an IC50 of 8.04 µM.
`CCCCCCOC(=O)C[N+](C)(C)CCOC1CC2CCC1(C)C2(C)C` (stereo unspecified) showed an IC50 of 48 µM.
`NC1CCN(c2c(F)cc3c(=O)c(C(=O)O)cn(C4CC4)c3c2Cl)C1` (stereo unspecified) was tested, and the IC50 was < 0.23 µM.
For `Clc1ccc(C(c2ccc(Cl)cc2)n2cc[n+](CC(OCc3ccc(Cl)cc3Cl)c3ccc(Cl)cc3Cl)c2)cc1` (stereo unspecified), the IC50 was 15 µM.
`Oc1ccc(Cl)cc1Cc1cc(Cl)ccc1O` showed an IC50 of 36 µM.
`O=C1C(SCCO)=C(SCCO)C(=O)c2ccccc21` gave an IC50 of 122 µM.
`CCCCCCCCCCCCCCCC[N+](C)(C)CCN(Cc1ccc(OC)cc1)c1ncccn1` showed an IC50 of 23.9 µM.
In the case of `CN1CCN(C(c2cccc(Cl)c2)c2ccccc2Cl)CC1` (stereo unspecified), the IC50 is reported as 107 µM.
Compound `Cc1ccc(C(C[N+](=O)[O-])Sc2ccc(N)cc2)cc1` (stereo unspecified) has an IC50 of 29.5 µM.
In the case of `COc1c(N2CCN(C(=S)Nc3ccc(F)cc3)C(C)C2)c(F)cc2c(=O)c(C(=O)O)cn(C3CC3)c12` (stereo unspecified), the IC50 is reported as 0.581 µM.
For `COc1ccc(C(=O)NC(=S)NNC(=O)c2cnccn2)cc1`, the IC50 was 80.5 µM.
`CCC(C)NC(=O)c1cn(CC)c2cc(N3CCN(C)CC3)c(F)cc2c1=O` (stereo unspecified) showed an IC50 of 38.4 µM.
`Clc1ccc(OCCCN2CCCC2)cc1Cl` gave an IC50 of 48.4 µM.
`O=C(CCc1ccccc1)NNC(=S)NC(=O)c1ccccc1` was tested, and the IC50 was 122 µM.
For `CC(C)(C)c1ccc(OCCCCCCN2CCNCC2)cc1`, the IC50 was 127 µM.
For `COC(=O)C1C(O)C(C)C(O)C(C)(O)/C=C\C=C(/C)C(=O)Nc2c(C)c(OC(C)=O)c3c(c2O)C(=O)C(C)=C2OCOC(=C23)/C(C)=C/C(C)(O)C(O)C(C)C1O` (stereo unspecified), the IC50 was 33.1 µM.
Work on `O=C(N/N=C/c1cc([N+](=O)[O-])ccc1O)C1CC1` yielded an IC50 of 14.9 µM.
`C#CCOCCOCCOCCNc1nc(N2CCN(C(=O)CCCCCCCCCCNC(=O)[C@H](CCCCN)n3cc(C)nn3)CC2)nc(N2CCN(C(=O)CCCCCCCCCCNC(=O)[C@@H]([C@H](C)CC)n3cc(CCCCCN)nn3)CC2)n1` gave an IC50 of 79 µM.
For `CSc1nc2ccc(Cl)cc2[nH]1`, the IC50 was 50.4 µM.
With `COc1cccc(/C=N/NC(=O)c2ccoc2C)c1O` the IC50 was 88.1 µM.
For `Clc1ccc(CN2CCc3c([nH]c4ccccc34)C2)cc1Cl`, the IC50 was 48.5 µM.
`C/C(=N\NC(=O)c1ccc(CN2CCc3ccccc3C2)cc1)c1ccccc1O` gave an IC50 of 42 µM.
Compound `Cc1cc(C)c(NC(=O)C[N+](C)(C)CC(O)COc2cccc3ccccc23)c(C)c1` (stereo unspecified) has an IC50 of 75.9 µM.
Compound `c1ccc(CN2CCN(c3ncnc4c3[nH]c3ccccc34)CC2)cc1` has an IC50 of 103 µM.
In the case of `CC[C@@H](C)[C@H](CN[C@H](CNC)C(C)C)NC[C@@H](C)c1ccc(CC(C)C)cc1`, the IC50 is reported as 61 µM.
In the case of `CN1CCN(Cc2cc(COCc3ccccc3)c3cccnc3c2O)CC1`, the IC50 is reported as 62.9 µM.
`COc1cccc(Nc2nc(NCC3CCCO3)c3ccccc3n2)c1` (stereo unspecified) showed an IC50 of 34.2 µM.
`O=S(=O)(Nc1ncccn1)c1ccc(NC(=S)Nc2cccc(Cl)c2)cc1` gave an IC50 of 95.3 µM.
In the case of `Cc1cc([N+](=O)[O-])nn1CC(=O)N/N=C/c1ccccc1O`, the IC50 is reported as 35.4 µM.
For `COc1cc([N+](=O)[O-])cc(/C=N/NC(=O)c2cccnc2)c1O`, the IC50 was 66.7 µM.
Compound `NC1=NC[C@H](c2ccccc2)N1CCCCC1CCCCC1` has an IC50 of 38.5 µM.
In the case of `O=C1Nc2ccccc2C1=Nc1ccc(S(=O)(=O)Nc2nccs2)cc1`, the IC50 is reported as 90.1 µM.
Work on `CCCCCN=C(N)N/N=C/c1c[nH]c2ccc(OC)cc12` yielded an IC50 of 35.6 µM.
`CCCCCCCCCCOC(=O)Cn1c(COc2ccc(Cl)cc2)[n+](C)c2ccccc21` gave an IC50 of 15.7 µM.
Work on `O=C(C[n+]1ccc(-c2ccccc2)cc1)Nc1ccc([N+](=O)[O-])cc1` yielded an IC50 of 27.3 µM.
For `O=C(/C=C/c1ccc(F)cc1)NC(=S)NNC(=O)c1cnccn1`, the IC50 was 20.4 µM.
`O=C(CN1CC(c2ccccc2)CC1=O)N/N=C/c1cc(Br)ccc1O` (stereo unspecified) was tested, and the IC50 was 46.4 µM.
`CNc1nc(SC)n(C)c(=O)c1N=O` showed an IC50 of 80.3 µM.
Work on `Cc1c(Cl)cccc1Nc1nc(NCCO)c2ccccc2n1` yielded an IC50 of 38.1 µM.
`C/C(=N\N=C(N)N)c1ccc(Cl)c(Cl)c1` gave an IC50 of 51.5 µM.
`CCCCCCCCCCOC(=O)C[N+](C)(C)CC1CCCCC1O` (stereo unspecified) gave an IC50 of 65 µM.
With `O=C(Nc1cccnc1)c1cc(Br)c(Br)s1` the IC50 was 134 µM.
`O=c1[nH]c2ccccc2n2c(=S)[nH]nc12` was tested, and the IC50 was 68.5 µM.
Compound `Cc1ccc2sc(N(CCCN(C)C)C(=O)c3ccc(Br)s3)nc2c1C` has an IC50 of 120 µM.
Work on `Cc1ccc(Nc2nc(NCCO)c3ccccc3n2)cc1C` yielded an IC50 of 80.8 µM.
`CCn1cc(C(=O)O)c(=O)c2cc(F)c(N3CCN(C(=S)NC(=O)c4ccccc4C)CC3)cc21` showed an IC50 of 28.2 µM.
Compound `N=c1n(Cc2ccc(Cl)cc2)c2ccccc2n1CC(O)COc1ccccc1` (stereo unspecified) has an IC50 of 66.8 µM.
In the case of `Cc1ccc(N/C(=C\C(=O)c2ccccc2)C(=O)O)cc1`, the IC50 is reported as 17.3 µM.
In the case of `C=CC1=C(C(=O)O)N2C(=O)[C@@H](NC(=O)/C(=N\O)c3csc(N)n3)[C@H]2SC1` (stereo in doubt), the IC50 is reported as 34.6 µM.
With `O=C(CSc1nnc(-c2cccnc2)n1Cc1ccco1)c1ccc2ccccc2c1` the IC50 was < 0.23 µM.
`O=C(CSc1ccccn1)N/N=C/c1c[nH]c2ccccc12` showed an IC50 of 133 µM.
With `COc1c(N2CCN(C(=S)NC3CC4CCC3C4)C(C)C2)c(F)cc2c(=O)c(C(=O)O)cn(C3CC3)c12` (stereo unspecified) the IC50 was 1.11 µM.
With `COc1cc2c(cc1OC)[C@H](Cc1ccc(O)cc1)NCC2` the IC50 was 87 µM.
Compound `CC1(C)N=C(N)NC(Nc2ccc(Br)cc2)=N1` has an IC50 of 76.4 µM.
With `FC(F)Oc1ccc(NC(=S)NCc2nc3ccccc3[nH]2)cc1` the IC50 was 33.7 µM.
For `O=C(Cn1nc(CNc2ccc(Cl)cc2)[n+]2c1CCCCC2)c1ccc(Br)cc1`, the IC50 was 77.5 µM.
In the case of `CCn1cc(C(=O)NCCO)c(=O)c2cc(F)c(N3CCN(C)CC3)cc21`, the IC50 is reported as 16.3 µM.
`N#C/C(=C(/O)c1ccco1)c1nc2ccccc2s1` gave an IC50 of 54.8 µM.
`O=C1C(O)=C(O)C(=O)c2ccccc21` was tested, and the IC50 was 88.8 µM.
In the case of `CCN(CC)c1ccc(CNc2nc3ccccc3n2C)cc1`, the IC50 is reported as 97.3 µM.
For `N/C(=N\OS(=O)(=O)c1ccccc1)c1cccnc1`, the IC50 was 9.86 µM.
With `N=c1c2c(n(Cc3ccc(Cl)cc3Cl)c3c1CCC3)CCCC2` the IC50 was 80.7 µM.
`Cc1cc(N/N=C/c2ccc(O)cc2)c2cccc(C)c2n1` showed an IC50 of 80.9 µM.
Compound `COc1ccc(N2C3=C(CC4=C2CC(C)(C)CC4=O)C(=O)CC(C)(C)C3)cc1` has an IC50 of 146 µM.
`COc1cc(C(=O)N/N=C/c2ccc(OC(=O)c3cccc(C)c3)c(OC)c2)ccc1O` gave an IC50 of 20.9 µM.
Work on `CN1CCN(c2cc3c(cc2F)c(=O)c(C(=O)O)cn3CCF)CC1` yielded an IC50 of 0.444 µM.
